Results on 13 molecules are retold here after US8586755B2, “Substituted nicotinamides as KCNQ2/3 modulators” (Grünenthal GmbH, priority 2009, dated 2013).

The assay addresses T1, KCNQ2/3 channels (Homo sapiens, UniProt O43525+O43526).
T1 construct: expressed in transfected cells
As to the kind of experiment: Fluorescence assay using a voltage sensitive dye (fluorimetry). The note with it: CHO-K1 cells expressing KCNQ2/3 channels; for EC50: agonistic activity; for Emax: read-out: Fluorimetry % efficacy (retigabine 50 μM = 100%). Type of assay: cell-based. As for the experimental part: Pharmacological Experiments Fluorescence Assay Using a Voltage Sensitive Dye
Human CHO-K1 cells expressing KCNQ2/3 channels are cultivated adherently at 37° C., 5% CO2 and 95% humidity in cell culture bottles (e.g. 80 cm^2 TC flasks, Nunc) with DMEM-high glucose (Sigma Aldrich, D7777) including 10% FCS (PAN Biotech, e.g. 3302-P270521) or alternatively MEM Alpha Medium (1×, liquid, Invitrogen, #22571), 10% fetal calf serum (FCS) (Invitrogen, #10270-106, heat-inactivated) and the necessary selection antibiotics.
Before being sown out for the measurements, the cells are washed with a 1×DPBS buffer without Ca^2+/Mg^2+ (e.g. Invitrogen, #14190-094) and detached from the bottom of the culture vessel by means of Accutase (PAA Laboratories, #L11-007) (incubation with Accutase for 15 min at 37° C.). The cell count then present is determined using a CASY™ cell counter (TCC model, Schärfe System) in order subsequently to apply, depending on the density optimization for the individual cell line, 20,000-30,000 cells/well/100 μl of the described nutrient medium to 96-well measuring plates of the Corning™ CellBIND™ type (Flat Clear Bottom Black Polystyrene Microplates, #3340). Incubation is then carried out for one hour at room temperature, without gassing or adjusting the humidity, followed by incubation for 24 hours at 37° C., 5% CO2 and 95% humidity.
The voltage-sensitive fluorescent dye from the Membrane Potential Assay Kit (Red™ Bulk format part R8123 for FLIPR, MDS Analytical Technologies™) is prepared by dissolving the contents of a vessel Membrane Potential Assay Kit Red Component A in 200 ml of extracellular buffer (ES buffer, 120 mM NaCl, 1 mM KCl, 10 mM HEPES, 2 mM CaCl2, 2 mM MgCl2, 10 mM glucose; pH 7.4). After removal of the nutrient medium, the cells are washed with 200 μl of ES buffer, then covered with a layer of 100 μl of the dye solution prepared above and incubated for 45 min at room temperature with the exclusion of light.
The fluorescence measurements are carried out with a BMG Labtech FLUOstar™ BMG Labtech NOVOstar™ or BMG Labtech POLARstar™ instrument (525 nm excitation, 560 nm emission, Bottom Read mode). After incubation of the dye, 50 μl of the test substances in the desired concentrations, or 50 μl of ES buffer for control purposes, are introduced into separate cavities of the measuring plate and incubated for 30 min at room temperature while being shielded from light. The fluorescence intensity of the dye is then measured for 5 min and the fluorescence value F1 of each well is thus determined at a given, constant time. 15 μl of a […] KCl solution ([…]) are then added to each well. The change in fluorescence is subsequently measured until all the relevant measured values have been obtained (mainly 5-30 min). At a given time after KCl application, a fluorescence value F2 is determined, in this case at the time of the fluorescence peak.
For calculation, the fluorescence intensity F2 is compared with the fluorescence intensity F1, and the agonistic activity of the target compound on the potassium channel is determined therefrom. F2 and F1 are calculated as follows: […]
In order to determine whether a substance has agonistic activity,
A substance has an agonistic activity on the potassium channel when
[formula] it is possible to conclude that a target compound has agonistic activity if an increase in
[formula] is to be observed as the dosage of the target compound increases.
Calculations of EC50 values are carried out with the aid of ‘Prism v4.0’ software (GraphPad Software™).

Molecule `O=C(NCC1CC2CCC1C2)c1cccnc1SCCCc1ccc(C(F)(F)F)cc1` (centres unmarked) [compound 34, N-(5-Bicyclo[2.2.1]heptanyl-methyl)-2-[3-[4-(trifluoromethyl)-phenyl]-propylsulfanyl]-pyridine-3-carboxylic acid amide] registered an EC50 of 463 nM. Further, the Emax (retigabine 50 μM = 100%) turned out to be 204%.
The corresponding values for `O=C(NCC1CC2CCC1C2)c1cccnc1SCCCc1ccc(Cl)cc1` (centres unmarked) [compound 35, N-(5-Bicyclo[2.2.1]heptanyl-methyl)-2-[3-(4-chlorophenyl)-propylsulfanyl]-pyridine-3-carboxylic acid amide] are 242 nM and 221%.
Consider `O=C(NCc1cc(F)cc(F)c1)c1cccnc1SCCCc1ccc(F)cc1` [compound 36, N-[(3,5-Difluoro-phenyl)-methyl]-2-[3-(4-fluorophenyl)-propylsulfanyl]-pyridine-3-carboxylic acid amide], for which the EC50 is 45 nM. Also, the Emax (retigabine 50 μM = 100%) came out at 78%.
The corresponding values for `O=C(NCc1ccc(Cl)s1)c1cccnc1SCCCc1ccc(F)cc1` [compound 37, N-[(5-Chloro-thiophen-2-yl)-methyl]-2-[3-(4-fluorophenyl)-propylsulfanyl]-pyridine-3-carboxylic acid amide] are 74 nM and 89%.
Regarding `CC1(C)CC1CNC(=O)c1cccnc1SCCCc1ccc(F)cc1` (centres unmarked) [compound 38, N-[(2,2-Dimethyl-cyclopropyl)-methyl]-2-[3-(4-fluorophenyl)-propylsulfanyl]-pyridine-3-carboxylic acid amide], the EC50 was 144 nM. The Emax (retigabine 50 μM = 100%) turned out to be 176%.
Taken in the same sequence, the figures for `O=C(NCC1CC2CCC1C2)c1cccnc1SCCCc1cccc(F)c1` (centres unmarked) [compound 39, N-(5-Bicyclo[2.2.1]heptanyl-methyl)-2-[3-(3-fluorophenyl)-propylsulfanyl]-pyridine-3-carboxylic acid amide] were 250 nM and 250%.
Taken in the same sequence, the figures for `O=C(NCC1CCCCCC1)c1cccnc1SCCCc1ccc(F)cc1` [compound 41, N-(Cycloheptyl-methyl)-2-[3-(4-fluorophenyl)-propylsulfanyl]-pyridine-3-carboxylic acid amide] were 157 nM and 159%.
With `CC(C)(C)CCNC(=O)c1cccnc1SCCCc1ccc(F)cc1` [compound 42], the EC50 came out at 128 nM. Where the note is “retigabine 50 μM = 100%”, the “Fluorimetry % efficacy (retigabine 50 μM = 100%)” value is 164%.
`O=C(CCSc1ncccc1C(=O)NCC1CC2CCC1C2)c1ccc(F)cc1` (centres unmarked) [compound 43, N-(5-Bicyclo[2.2.1]heptanyl-methyl)-2-[[3-(4-fluorophenyl)-3-oxo-propyl]sulfanyl]-pyridine-3-carboxylic acid amide] registered an EC50 of 896 nM. Besides, the Emax (retigabine 50 μM = 100%) worked out at 46%.
In the case of `O=C(CCSc1ncccc1C(=O)NCC1CC2CCC1C2)c1ccccc1` (centres unmarked) [compound 44, N-(5-Bicyclo[2.2.1]heptanyl-methyl)-2-[(3-oxo-3-phenyl-propyl)sulfanyl]-pyridine-3-carboxylic acid amide], the half-maximal effective concentration (EC50) came out at 2960 nM. The Emax (retigabine 50 μM = 100%) is 167%.
With `CCCCCCSc1ncccc1C(=O)NCC1CC2CCC1C2` (centres unmarked) [compound 45, N-(5-Bicyclo[2.2.1]heptanyl-methyl)-2-(hexylsulfanyl)-pyridine-3-carboxylic acid amide], the EC50 was 1610 nM. The Emax (retigabine 50 μM = 100%) turned out to be 224%.
`O=C(NCC1CC2CCC1C2)c1cccnc1SCCOc1ccccc1` (centres unmarked) [compound 46, N-(5-Bicyclo[2.2.1]heptanyl-methyl)-2-(2-phenoxy-ethylsulfanyl)-pyridine-3-carboxylic acid amide] displayed an EC50 of 672 nM. Besides, the Emax (retigabine 50 μM = 100%) worked out at 238%.
`O=C(NCC1CC2CCC1C2)c1cccnc1SCCOc1cccc(C(F)(F)F)c1` (centres unmarked) [compound 47, N-(5-Bicyclo[2.2.1]heptanyl-methyl)-2-[2-[3-(trifluoromethyl)-phenoxy]-ethylsulfanyl]-pyridine-3-carboxylic acid amide]: a half-maximal response (EC50) required 218 nM. In addition, for the setting “retigabine 50 μM = 100%”, the Emax amounted to 183%.
